Test results taken from patent US6420605B1, “Benzamidoxim derivatives, intermediate products and methods for preparing and using them as fungicides” (BASF Aktiengesellschaft, priority 1997, dated 2002).

Test system: powdery mildew of wheat (Erysiphe graminis f.sp.tritici)
Test: Efficacy against powdery mildew of wheat (protective spray, greenhouse)
Assay type: in vivo
Conditions: wheat seedlings cv. Frühgold sprayed 24 hours before dusting with spores, after 7 days, untreated plants 80%
Protocol: Leaves of wheat seedlings cv. “Frühgold” grown in pots were sprayed to runoff point with aqueous preparation of active ingredient made with a stock solution composed of 10% active ingredient, 63% cyclohexanone and 27% emulsifier and, 24 hours after the spray coating had dried on, dusted with spores of powdery mildew of wheat (Erysiphe graminis f.sp.tritici). The test plants were subsequently placed in the greenhouse at from 20 to 22° C. and a relative atmospheric humidity of 75 to 80%. After 7 days, the extent of the mildew development was determined visually in % of the total leaf area.

[1] = Example 3, aqueous preparation comprising 63 ppm active ingredient

| Compound | extent of the mildew development determined visually in % of the total leaf area (Example 4, concentration not given) | extent of the mildew development determined visually in % of the total leaf area [1] |
| --- | --- | --- |
| N#Cc1c(F)cccc1OC(F)F [II.1, 2-Difluoromethoxy-6-fluorobenzonitrile] | free from disease | – |
| C=CCCON=C(NC(=O)Cc1ccccc1)c1c(F)cccc1OC(F)F [I.3, N-Phenylacetyl-2-difluoromethoxy-6-fluorobenzamide O-allylmethyl oxime] | – | free from disease |
| O=C(Cc1ccccc1)NC(=NOCC1CC1)c1c(F)cccc1OC(F)F [I.6, N-Phenylacetyl-2-difluoromethoxy-6-fluorobenzamide O-cyclopropylmethyl oxime] | – | free from disease |
